Values of other authors, collected in US7947467B2, “Methods for monitoring pathological conditions in a subject” (Common Sense Ltd., priority 2001, dated 2011).

Experiments:
[1] = in aqueous solution

Compound	aqueous pH transition range	pKa [1]
O=C1c2ccccc2C(=O)c2c1ccc(O)c2O [Alizarin]	5.5-6.8	–
Cc1cc(C2(c3cc(C)c(O)c(Br)c3)OS(=O)(=O)c3ccccc32)cc(Br)c1O [Bromcresol Purple]	5.2-6.8	–
Cc1cc(C2(c3cc(C)c(O)c(Br)c3C)OS(=O)(=O)c3ccccc32)c(C)c(Br)c1O [Bromoxylenol Blue]	6.0-7.6	–
Cc1c(C2(c3cc(C(C)C)c(O)c(Br)c3C)OS(=O)(=O)c3ccccc32)cc(C(C)C)c(O)c1Br [Bromthymol Blue]	6.0-7.6	–
O=S1(=O)OC(c2ccc(O)c(Cl)c2)(c2ccc(O)c(Cl)c2)c2ccccc21 [Chlorophenol Red]	5.2-8.8	–
Cc1cc(C2(c3ccc(O)c(C)c3)OS(=O)(=O)c3ccccc32)ccc1O [Cresol Red]	7.2-8.8	–
Cc1cc2nc3ccc(N(C)C)cc3nc2cc1N.Cl [Neutral Red]	6.8-8.0	–
Cc1cc(O)c(C(C)C)cc1C1(c2cc(C(C)C)c(O)cc2C)OS(=O)(=O)c2ccccc21 [Thymol Blue]	8.0-9.2	–
Cc1cc(C2(c3cc(C)c(O)cc3C)OS(=O)(=O)c3ccccc32)c(C)cc1O [Xylenol Blue]	8.0-9.6	–
Cc1cc(O)ccc1C1(c2ccc(O)cc2C)OS(=O)(=O)c2ccccc21 [m-Cresol purple]	7.4-9.0	–
Nitrazine Yellow	6.0-7.2	6.6
